According to US9999620B2, “CaMKK-β as a target for treating cancer” (Duke University, priority 2010, dated 2018):

Experiments:
Assay type in all cases: cell-based, human
[1] = test system: LNCaP cells; assay: Matrigel extracellular matrix invasion assay; settings: 1 h +/-30 mM STO-609, overnight +/-10 nM R1881
Method: FIG. 7. CaMKKβ activity in the androgen-mediated migration and invasion of prostate cancer cells. A, LNCaP cells were plated in 96-well plates and grown for 3 d. […] On d 10, cells were lysed and the relative number of cells was measured with the fluorescent DNA binding dye FluoReporter Blue. Each sample was performed in triplicate, and results from a representative experiment are shown. […] Cells were then dissociated and reseeded into the top chamber for a Boyden migration or Matrigel extracellular matrix invasion assay. Fresh medium with the corresponding treatments was added to the top and bottom chambers while either no chemoattractant or 5% FBS (serum) was added to the bottom chamber. After 16 h, migrated cells were fixed, stained and counted in three different microscopic fields and added together. […] C top, LNCaP cells were transfected with indicated siRNAs. […] D right, LNCaP cells stably expressing either GAL4 (control) or CaMKKβ were subjected to a migration assay as described in B using +/−5% FBS as chemoattractant. The results are expressed as mean+SE (n=3). *, significant changes from LNCaP-GAL4 cells. D left, western blot confirming CaMKKβ […]expression. Migration and invasion assays. Boyden dual chamber migration assays were performed as previously described (4). […]

[2] = test system: VCaP cells; assay: Boyden dual chamber migration assay; settings: 1 h +/-30 mM STO-609, overnight +/-10 nM R1881, 16 h migration, 5% FBS chemoattractant
From the text: FIG. 6. CaMKKβ activity in androgen-mediated cell migration in prostate cancer cells. […] Cell lysates were then subjected to western blot analysis and subsequent densitometry (right). Phospho-[…]) levels were normalized to total CaMKI. Results are expressed as fold induction/phosphorylation over double vehicle-treated cells+SE (n=2). *, P<0.05 indicates significant changes from vehicle-treated cells. ^#, P<0.05 indicates significant changes from vehicle (no STO-609)-treated cells. B, VCaP cells were plated in 96-well plates and grown for 3 d. […] On d 10, cells were lysed and the relative number of cells was measured with the fluorescent DNA binding dye FluoReporter Blue. Each sample was performed in triplicate, and results from a representative experiment are shown. […] Cells were then dissociated and reseeded into the top chamber for a Boyden dual chamber migration assay. Fresh medium with the corresponding treatments was added to the top and bottom chambers while either no chemoattractant or 5% FBS (serum) was added to the bottom chamber. After 16 h, migrated cells were fixed, stained with crystal violet and counted in three different microscopic fields and added together. […]

[3] = test system: AMPK phosphorylation (T172) by CaMKKβ; assay: Western blot of phospho-AMPK; settings: STO-609 pretreatment
Method: A, LNCaP cells were pretreated for 1 h+/−30 mM STO-609 prior to overnight treatment+/−10 nM R1881. Cell lysates were then subjected to western blot analysis and subsequent densitometry (right). CaMKKβ levels were normalized to GAPDH. Phospho-CaMKI (p-CaMKI) levels were normalized to total CaMKI. Phospho-AMPK (p-AMPK) levels were normalized to total AMPK. Results are expressed as fold induction/phosphorylation over double vehicle-treated cells+SE (n=3). *, significant changes from vehicle-treated cells. B, LNCaP cells stably expressing either GAL4 or CaMKKβ □were treated overnight+/−10 nM R1881. Cell lysates were then subjected as in A to western blot analysis and densitometry (right). Results are expressed as fold induction/phosphorylation over LNCaP-GAL4 vehicle-treated cells+SE (n=3). *, significant changes from LNCaP-GAL4 vehicle-treated cells. […]
A, VCaP cells were treated for 24 h+/−10 nM R1881. […] Results are expressed as fold induction/phosphorylation over vehicle-treated cells+SE (n=2). *, P<0.05 indicates significant changes from vehicle-treated cells. […]
Western blot analysis. […] For each sample, protein levels were determined by densitometry using the ImageJ software (NIH) and normalizing to indicated controls.

[4] = test system: LNCaP cells; assay: Cell proliferation assay (FluoReporter Blue DNA content); settings: +/-1 nM R1881 and +/-30 mM STO-609 on d 3, d 5, d 7, read on d 10
Method: FIG. 7. CaMKKβ activity in the androgen-mediated migration and invasion of prostate cancer cells. A, LNCaP cells were plated in 96-well plates and grown for 3 d. […] On d 10, cells were lysed and the relative number of cells was measured with the fluorescent DNA binding dye FluoReporter Blue. Each sample was performed in triplicate, and results from a representative experiment are shown. […] Cells were then dissociated and reseeded into the top chamber for a Boyden migration or Matrigel extracellular matrix invasion assay. Fresh medium with the corresponding treatments was added to the top and bottom chambers while either no chemoattractant or 5% FBS (serum) was added to the bottom chamber. After 16 h, migrated cells were fixed, stained and counted in three different microscopic fields and added together. […] C top, LNCaP cells were transfected with indicated siRNAs. […] D right, LNCaP cells stably expressing either GAL4 (control) or CaMKKβ were subjected to a migration assay as described in B using +/−5% FBS as chemoattractant. The results are expressed as mean+SE (n=3). *, significant changes from LNCaP-GAL4 cells. D left, western blot confirming CaMKKβ […]expression. […] Proliferation assays were performed as previously described (12) by measuring the cellular DNA content using the FluoReporter Blue Fluorometric double-stranded DNA Quantitation Kit (Invitrogen) as per the manufacturer's protocol.

`O=C(O)c1ccc2c3c1cccc3c(=O)n1c3ccccc3nc21` [STO-609] was tested, and the “androgen-mediated invasion through Matrigel extracellular matrix” value [1] was “inhibited androgen-mediated invasion”, the androgen-mediated migration [2] was “blocked the androgen-mediated migration” and the “androgen-increased phosphorylation of AMPK (T172)” value ([3]; LNCaP, 10 nM R1881) was “reversed”. For the same molecule, the “androgen-increased phosphorylation of AMPK (T172)” value ([3]; VCaP) was “reversed” and the “effect on cell number (androgen-mediated cellular growth)” value [4] was “no significant effect”.
